This is an account of results in PubChem BioAssay AID1963450 (Molecular Pharmacology Branch, DTP, NCI, 2024).

The assay deals with 556581-035-R-J1-PDC complex spheroid growth. As to the kind of experiment: Anticancer human tumor 556581-035-R-J1-PDC patient-derived ovarian carcinoma cell line growth inhibition [Asc]. The conditions noted are these: for viability, T/C: stronger effect = lower value. Here is the method:
Multicellular complex tumor spheroid response to apoptosis pathway targeting inhibitors Alrizomadlin, Pelcitoclax, and Dasminapant in combination with a variety of drugs and investigational agents in selected tumor cell lines
The MDM2 inhibitor alrizomadlin, the Bcl-2/Bcl-xL inhibitor pelcitoclax, and the IAPs inhibitor dasminapant were evaluated both individually and in combination with standard of care and investigational anticancer small molecules within a complex spheroid model of solid tumors. . Complex spheroids include a stromal component modeled by human endothelial cells (HUVEC) and fibroblasts modeled by human mesenchymal stem cells (MSCs). The concentration ranges selected for each drug and investigational agent were based upon clinically achievable concentrations if the clinical Cmax of the agent was known.
Compounds. The drugs and investigational agents: alrizomadlin (APG-115; NSC831270), pelcitoclax (APG-1252; NSC835773), dasminapant (APG-1387;NSC834197), TAK-243 (NSC785004), copanlisib (NSC809693), olaparib (NSC753686), talazoparib (NSC767125), cobimetinib (NSC 768068), eltanexor (KPT-8602, NSC 794443), abemaciclib (NSC 768073), sotorasib (NSC818433), adagrasib (NSC 831453), MRTX-1133 (NSC 836407), Iadademestat (ORY1001, NSC 806812), and RMC-4630 (NSC839698), were obtained from the NCI Developmental Therapeutics Program Chemical Repository. The FDA-approved anticancer drug set is available from the Developmental Therapeutics Program at https://dtp.cancer.gov/organization/dscb/obtaining/available plates.htm. […] The stock solutions were prepared in dimethyl sulfoxide (DMSO, Sigma-Aldrich, St. Louis, MO, cat. D2650) at 800-fold the tested concentration and stored at -70 degrees C prior to their use. All drugs and investigational agents were tested over a range starting from a high concentration at or near the clinical Cmax and decreasing in half-log increments. If the clinical Cmax for an agent had not been determined, the highest concentration tested was 10 microM.
The patient-derived cancer (PDC) cell lines include five colon adenocarcinomas: 186277-243-T-J2-PDC, 616215-338-R-J1-PDC, 439559-082-T-J2-PDC, 463943-066-T-J2-PDC, and 519858-162-T-J1-PDC; three pancreatic carcinomas: 323965-272-R-J2-PDC, 521955-158-R6-J3-PDC, and 521955-158-R2-J5-PDC; two uterine sarcomas: 327498-152-R-J2-PDC and 993429-296-R-J1-PDC; two rhabdomyosarcomas: 755483-174-R-J1-PDC and 772245-204-R-J1-PDC; two soft tissue sarcomas: 126254-015-R-J1-PDC and 494315-158-R-J1-PDC; two malignant fibrous histiocytomas: 317291-083-R-J1-PDC and 596521-263-R-J1-PDC; two breast carcinomas: 171881-019-R-J1-PDC and 885512-296-R-J2-PDC; and one ovarian carcinoma: 6556581-035-R-J-PDC were obtained from the NCI PDMR, (https://pdmr.cancer.gov). The established cell lines HSSY-2 synovial sarcoma (RRID:CVCL 8719), SYO-1 synovial sarcoma (RRID:CVCL_7146), MPNST malignant peripheral neural sheath tumor were obtained from the Sloan Kettering Institute. The following established cell lines were purchased from the American Type Culture Collection (ATCC, Manassas, VA), Sor the received from the NCI repository:, PANC-1 pancreatic carcinoma (CRL-1469, RRID:CVCL_0480), OVCAR-5 ovarian carcinoma (RRID:CVCL_1628), OVCAR-8 ovarian carcinoma (RRID:CVCL_1629), , MCF-7 breast carcinoma (CRL-12584, RRID:CVCL_0031), MDA-MB-231 breast carcinoma (CRL-12532, RRID:CVCL_0062), NCI-H1876 small cell lung carcinoma (CRL-5902, RRID:CVCL_1503), NCI-H510A small cell lung carcinoma (HTB-184, RRID:CVCL_1565), NCI-H1417 (CRL-5869, RRID:CVCL_1469), and NCI-H196 small cell lung carcinoma (CRL-5823, RRID:CVCL_1509). Dr. Peter Houghton (Greehey Children's Cancer Research Institute, University of Texas Health Science Center, San Antonio, TX) provided Rh-18 rhabdomyosarcoma (RRID:CVCL_1659). Pooled donor human umbilical vein endothelial cells (HUVEC, Lonza, cat. CC-2519) and human mesenchymal stem cells (hMSC, Lonza, cat. PT-2501) were purchased from Lonza (Walkersville, MD).
Cell Culture. […]

Setting [1] is: compound alone, run of 10/11/2022.

“And” between values parts separate entries of the source, which are not always exact repeats. Equal entries are not always repeated.
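Further: spheroids exposed to agents for 7 days before viability read.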

For orientation: viability, T/C means the ratio of treated to control. One may read the IC50 as the concentration at which inhibition is half-maximal. `C#Cc1c(F)ccc2cc(O)cc(-c3ncc4c(N5CC6CCC(C5)N6)nc(OCC56CCCN5CC(F)C6)nc4c3F)c12` (configuration not stated): the viability, T/C reads like this: (compound 0.0316 µM) 101% and 92.2% and 88%; (compound 0.1 µM) 105% and 102% and 87.2%; (compound 0.316 µM) 94.2% and 81% and 90.1%; (compound 1 µM) 102% and 80.5% and 75.8%; (compound 3.16 µM) 97.2% and 89.5% and 113%; (compound 10 µM) 91.1% and 85.6% and 83.9%. Moreover, the IC50 (curve of compound) is above 10000 nM.

For `C=C(F)C(=O)N1CCN(c2nc(OCC3CCCN3C)nc3c2CCN(c2cccc4cccc(Cl)c24)C3)CC1CC#N` (configuration not stated), the viability, T/C is, setting by setting: (compound 0.0316 µM) 77.9% and 98.7% and 100%; (compound 0.1 µM) 113% and 115% and 91.5%; (compound 0.316 µM) 102% and 110% and 95%; (compound 1 µM) 90.5% and 87% and 93.3%; (compound 3.16 µM) 48.4% and 64.9% and 55.1%; (compound 10 µM) 15% and 3.22% and 1%. Also, the IC50 (curve of compound) was 3020 nM and 4070 nM and 3520 nM.

For the molecule `C=CC(=O)N1CCN(c2nc(=O)n(-c3c(C)ccnc3C(C)C)c3nc(-c4c(O)cccc4F)c(F)cc23)C(C)C1` (configuration not stated), the viability, T/C is 111% and 113% and 95.5% (compound 0.0316 µM); 88.9% and 109% and 106% (compound 0.1 µM); 104% and 110% and 108% (compound 0.316 µM); 83.5% and 88.5% and 109% (compound 1 µM); 99% and 99.9% and 109% (compound 3.16 µM); 111% and 76.8% and 107% (compound 10 µM). Where the note is “curve of compound”, the IC50 was above 10000 nM.

As to `CCN1C(C(=O)NC23CCC(C(=O)O)(CC2)CC3)C(c2cccc(Cl)c2F)C2(C(=O)Nc3cc(Cl)ccc32)C12CCCCC2` (configuration not stated), the viability, T/C (compound 0.00949 µM) is 95.4% and 108%. Further, the IC50 under setting [1] is above 3000 nM and the IC50 (curve of compound) is above 3000 nM.

For `CCN1CCN(Cc2ccc(Nc3ncc(F)c(-c4cc(F)c5nc(C)n(C(C)C)c5c4)n3)nc2)CC1`, the viability, T/C is 105% and 78% and 90.7% (compound 0.00316 µM); 84.4% and 87.4% and 107% (compound 0.01 µM); 88.9% and 97.7% and 107% (compound 0.0316 µM); 85.2% and 84.8% and 106% (compound 0.1 µM); 76.2% and 64.5% and 69.5% (compound 0.316 µM); 76.5% and 76.4% and 66.7% (compound 1 µM). Moreover, the IC50 (curve of compound) was above 1000 nM.

Consider `CNC(C)C(=O)NC1CN(S(=O)(=O)c2cccc(S(=O)(=O)N3CCC4CCC(C(=O)NC(c5ccccc5)c5ccccc5)N4C(=O)C(NC(=O)C(C)NC)C3)c2)CCC2CCC(C(=O)NC(c3ccccc3)c3ccccc3)N2C1=O` (configuration not stated), for which the viability, T/C runs as follows: (compound 0.00316 µM) 96.2% and 82.3% and 87.2%; (compound 0.0316 µM) 89.3% [middle of 14 runs]; (compound 0.316 µM) 74.3% [middle of 14 runs]. For the same molecule, the IC50 runs as follows: (compound alone, run of 10/24/2022) above 1000 nM; (compound alone, run of 11/15/2022) above 1000 nM; (curve of compound) above 1000 nM.

As to `COc1c(OCCCN2CCOCC2)ccc2c3n(c(=NC(=O)c4cnc(N)nc4)nc12)CCN3`, the viability, T/C (compound 0.00316 µM) is 78.2% and 82.3% and 79.7%; the viability, T/C (compound 0.01 µM) was 72.5% and 69% and 57%; the viability, T/C (compound 0.0316 µM) was 46.2% and 48.9% and 45.8%; the viability, T/C (compound 0.1 µM) is 48.2% and 42% and 41%; the viability, T/C (compound 0.316 µM) is 31.7% and 22.4% and 24.1%; the viability, T/C (compound 1 µM) is 11.9% and 14.8% and 17.5%. Also, the IC50 (curve of compound) was 53.7 nM and 38.1 nM and 25.9 nM.

`Cc1c(S(C)(=O)=O)c(-c2cc(F)cc(N3CCN(c4ccc(NS(=O)(=O)c5ccc(NC(CCN6CCC(C(=O)OCCCP(=O)(O)O)CC6)CSc6ccccc6)c(S(=O)(=O)C(F)(F)F)c5)cc4)CC3)c2)c(-c2ccc(Cl)cc2)n1C(C)C` (configuration not stated): the viability, T/C is 80.6% [middle of 14 runs] (compound 0.1 µM); 73.5% [middle of 14 runs] (compound 0.316 µM); 66.1% [middle of 14 runs] (compound 1 µM); 66.3% [middle of 14 runs] (compound 3.16 µM); 61.9% [middle of 14 runs] (compound 10 µM). The half-inhibitory concentration (IC50) under setting [1] was above 10000 nM.

For the molecule `Cc1nc(N2CCC3(CC2)COC(C)C3N)c(CO)nc1Sc1ccnc(N)c1Cl` (configuration not stated), the viability, T/C was 111% (2×) and 89.8% (compound 0.00949 µM); 101% and 92.6% and 91.2% (compound 0.03 µM); 87.5% and 79.8% and 84% (compound 0.0949 µM); 81.9% and 68.8% and 83.9% (compound 0.3 µM); 62.8% and 61.9% and 56.5% (compound 0.949 µM); 44.7% and 51% and 51.8% (compound 3 µM). Also, the IC50 (curve of compound) is 2290 nM and > 3000 nM.

With `Cn1ncnc1[C@H]1c2n[nH]c(=O)c3cc(F)cc(c23)N[C@@H]1c1ccc(F)cc1`, the viability, T/C is 100% and 86.8% and 84.9% (compound 0.000316 µM); 111% and 95.3% and 97% (compound 0.001 µM); 97.7% and 107% and 74.9% (compound 0.00316 µM); 106% and 99.9% and 76.3% (compound 0.01 µM); 105% and 86.6% and 94.5% (compound 0.0316 µM); 99.7% and 85.6% and 94.2% (compound 0.1 µM). Further, under “curve of compound”, the IC50 was above 100 nM.

As to `NC(=O)C(=Cn1cnc(-c2cc(C(F)(F)F)cc(C(F)(F)F)c2)n1)c1cncnc1`, the viability, T/C is, setting by setting: (compound 0.000949 µM) 96.8% and 78.4% and 91%; (compound 0.003 µM) 79.9% and 83.7% and 94.9%; (compound 0.00949 µM) 97.6% and 97.4% and 87%; (compound 0.03 µM) 88.8% and 107% and 101%; (compound 0.0949 µM) 97.1% and 55.4% and 87.1%; (compound 0.3 µM) 95.9% and 77.4% and 102%. Further, the IC50 (curve of compound) is above 300 nM.

On to `NC1CCC(NC2CC2c2ccccc2)CC1` (configuration not stated), for which the viability, T/C is, setting by setting: (compound 0.000316 µM) 86.2% and 89% and 93.9%; (compound 0.001 µM) 88.5% and 105% and 92.8%; (compound 0.00316 µM) 92.3% and 95.4% and 89.9%; (compound 0.01 µM) 89.6% and 94.8% and 95.2%; (compound 0.0316 µM) 94.2% and 84.8% and 111%; (compound 0.1 µM) 87.9% and 97.2% and 85%. Moreover, the IC50 (curve of compound) was above 100 nM.

As to `O=C(c1cc(Cc2n[nH]c(=O)c3ccccc23)ccc1F)N1CCN(C(=O)C2CC2)CC1`, the viability, T/C is, setting by setting: (compound 0.0316 µM) 102% and 112% and 91.3%; (compound 0.1 µM) 107% and 101% and 99.2%; (compound 0.316 µM) 106% (2×) and 60%; (compound 1 µM) 95.7% and 85.4% and 88.8%; (compound 3.16 µM) 106% and 98.3% and 72.7%; (compound 10 µM) 81.1% and 83.3% and 78.6%. The IC50 (curve of compound) is above 10000 nM.

With `O=C(c1ccc(F)c(F)c1Nc1ccc(I)cc1F)N1CC(O)([C@@H]2CCCCN2)C1`, the viability, T/C by setting is: (compound 0.00316 µM) 108% and 79.6% and 89.6%; (compound 0.01 µM) 109% and 97.5% and 101%; (compound 0.0316 µM) 59.3% and 70.2% and 121%; (compound 0.1 µM) 63.9% and 59.8% and 92%; (compound 0.316 µM) 50.6% and 37.8% and 42%; (compound 1 µM) 7.45% and 10.7% and 14%. In addition, the IC50 (curve of compound) was 171 nM and 164 nM and 263 nM.
